Several values for one entry are separate records, joined by “and”; a condition that tells them apart may be missing. Identical values can stand only once. Toxic doses and inconclusive results are not listed. The calls were made as follows: active = survival T/C of 150% or more; inactive = T/C below 125% in these data.
Test system: P388 leukemia ip, CD2F1 mice, survival T/C
Assay: NCI In Vivo Anticancer Drug Screen. Data for tumor model P388 Leukemia (intraperitoneal) in CD2F1 (CDF1) mice
Settings: endpoint: median survival time, higher = longer survival
Outline: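 Mice carrying the transplanted tumor received test compound or vehicle. Survival was recorded in each group, and the value is the treated-group measurement divided by that of the vehicle-treated control group.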

[1] = dose: 50.0 mg/kg/injection, schedule: Q01DX009 (ip), vehicle: Klucel (hydroxypropylcellulose) (HPC)
[2] = dose: 100.0 mg/kg/injection, schedule: Q01DX009 (ip), vehicle: Klucel (hydroxypropylcellulose) (HPC)
[3] = dose: 200.0 mg/kg/injection, schedule: Q01DX009 (ip), vehicle: Klucel (hydroxypropylcellulose) (HPC)
[4] = dose: 50.0 mg/kg/injection, schedule: Q01DX005 (ip), vehicle: saline with Tween-80

Measured: T/C

CCOc1ccc(/C=C2\CCc3ccccc3C2=O)cc1
inactive: [1] 98 % of control | [2] 102 % of control | [3] 99 % of control

COCCOCCN1CCN(CCCN2c3ccccc3Sc3ccc(C(F)(F)F)cc32)CC1
inactive: dose: 1.56 mg/kg/injection, schedule: Q04DX003 (ip), vehicle: saline 95 % of control | dose: 3.0 mg/kg/injection, schedule: Q04DX003 (ip), vehicle: saline 104 % of control and 97 % of control | dose: 3.12 mg/kg/injection, schedule: Q04DX003 (ip), vehicle: saline 95 % of control | dose: 6.0 mg/kg/injection, schedule: Q04DX003 (ip), vehicle: saline 108 % of control | dose: 6.25 mg/kg/injection, schedule: Q04DX003 (ip), vehicle: saline 96 % of control | dose: 12.0 mg/kg/injection, schedule: Q04DX003 (ip), vehicle: saline 104 % of control and 122 % of control | dose: 12.5 mg/kg/injection, schedule: Q04DX003 (ip), vehicle: saline 120 % of control | dose: 50.0 mg/kg/injection, schedule: Q04DX003 (ip), vehicle: saline 124 % of control

COC1/C=C/OC2(C)Oc3c(C)c(O)c4c(O)c(c(/C=N/N5C(C)CN(Cc6ccc(C)cc6)CC5C)c(O)c4c3C2=O)NC(=O)C(C)=C/C=C/C(C)C(O)C(C)C(O)C(C)C(OC(C)=O)C1C (stereo not drawn)
inactive: dose: 50.0 mg/kg/injection, schedule: Q01DX009 (ip), vehicle: saline with Tween-80 97 % of control | dose: 100.0 mg/kg/injection, schedule: Q01DX009 (ip), vehicle: saline with Tween-80 96 % of control | dose: 200.0 mg/kg/injection, schedule: Q01DX009 (ip), vehicle: saline with Tween-80 103 % of control

O=C1c2ccccc2C(=O)c2c1cccc2-c1ccccc1
inactive: dose: 50.0 mg/kg/injection, schedule: Q01DX005 (ip), vehicle: Klucel (hydroxypropylcellulose) (HPC) 86 % of control | dose: 100.0 mg/kg/injection, schedule: Q01DX005 (ip), vehicle: Klucel (hydroxypropylcellulose) (HPC) 87 % of control | dose: 200.0 mg/kg/injection, schedule: Q01DX005 (ip), vehicle: Klucel (hydroxypropylcellulose) (HPC) 88 % of control

O=C(N/N=C/c1ccccc1[O-])c1ccccc1O.O=C(N/N=C/c1ccccc1[O-])c1ccccc1O.[Fe+2]
inactive: dose: 60.0 mg/kg/injection, schedule: Q01DX005 (ip), vehicle: Klucel (hydroxypropylcellulose) (HPC) 103 % of control | dose: 120.0 mg/kg/injection, schedule: Q01DX005 (ip), vehicle: Klucel (hydroxypropylcellulose) (HPC) 108 % of control | dose: 240.0 mg/kg/injection, schedule: Q01DX005 (ip), vehicle: Klucel (hydroxypropylcellulose) (HPC) 94 % of control

O=C(O)C1C2C=CC(O2)C1C(=O)Nn1cccc1 (stereo not drawn)
inactive: [1] 99 % of control | [2] 94 % of control | [3] 95 % of control

CCCC(=O)O.CCCC(=O)O.CCCC(=O)O.CCCC(=O)O.[Rh].[Rh]
inactive: dose: 0.12 mg/kg/injection, schedule: Q01DX009 (ip), vehicle: saline + alcohol 116 % of control | dose: 0.25 mg/kg/injection, schedule: Q01DX009 (ip), vehicle: saline + alcohol 106 % of control and 122 % of control | dose: 15.63 micrograms/kg/injection, schedule: Q08HX018 (ip), vehicle: saline + alcohol 118 % of control | dose: 31.25 micrograms/kg/injection, schedule: Q01DX009 (ip), vehicle: saline + alcohol 107 % of control | dose: 31.25 micrograms/kg/injection, schedule: Q08HX018 (ip), vehicle: saline + alcohol 118 % of control | dose: 62.5 micrograms/kg/injection, schedule: Q08HX018 (ip), vehicle: saline + alcohol 101 % of control | dose: 125.0 micrograms/kg/injection, schedule: Q01DX009 (ip), vehicle: saline + alcohol 114 % of control | dose: 125.0 micrograms/kg/injection, schedule: Q08HX018 (ip), vehicle: saline + alcohol 113 % of control | dose: 250.0 micrograms/kg/injection, schedule: Q01DX009 (ip), vehicle: saline + alcohol 115 % of control | dose: 250.0 micrograms/kg/injection, schedule: Q08HX018 (ip), vehicle: saline + alcohol 114 % of control | dose: 500.0 micrograms/kg/injection, schedule: Q01DX009 (ip), vehicle: saline + alcohol 122 % of control

Fc1cccc(N=Nc2c(-c3ccccc3)nn(C(=S)S)c2-c2ccccc2)c1
inactive: [4] 104 % of control | dose: 100.0 mg/kg/injection, schedule: Q01DX005 (ip), vehicle: saline with Tween-80 101 % of control | dose: 200.0 mg/kg/injection, schedule: Q01DX005 (ip), vehicle: saline with Tween-80 106 % of control

Cc1c(Cc2c(C)n(C)n(-c3ccccc3)c2=O)c(=O)n(-c2ccccc2)n1C
inactive: dose: 25.0 mg/kg/injection, schedule: Q01DX009 (ip), vehicle: Klucel (hydroxypropylcellulose) (HPC) 100 % of control and 103 % of control | [1] 106 % of control and 89 % of control | [2] 99 % of control and 88 % of control

CC(=O)C1C(=O)C(=O)N(c2ccccc2[N+](=O)[O-])C1=O (stereo not drawn)
inactive: dose: 12.5 mg/kg/injection, schedule: Q01DX005 (ip), vehicle: saline with Tween-80 101 % of control | dose: 25.0 mg/kg/injection, schedule: Q01DX005 (ip), vehicle: saline with Tween-80 107 % of control | [4] 100 % of control and 113 % of control

From PubChem BioAssay AID330 (DTP/NCI, 2004)
